Literature values, collected in patent publication US20030101005A1, “Crystals and structures of perosamine synthase homologs” (priority 2001, published 2003).

Target: T1, His-tag RfbE fusion protein (GDP-4-keto-6-deoxy-D-mannose-4-aminotransferase) (Vibrio cholerae, UniProt Q06953)
T1 construct: His-tag
Settings: substrate or cosubstrate of His-tag RfbE fusion protein

T1 sequence (Q06953 whole entry, the tested form may be a part): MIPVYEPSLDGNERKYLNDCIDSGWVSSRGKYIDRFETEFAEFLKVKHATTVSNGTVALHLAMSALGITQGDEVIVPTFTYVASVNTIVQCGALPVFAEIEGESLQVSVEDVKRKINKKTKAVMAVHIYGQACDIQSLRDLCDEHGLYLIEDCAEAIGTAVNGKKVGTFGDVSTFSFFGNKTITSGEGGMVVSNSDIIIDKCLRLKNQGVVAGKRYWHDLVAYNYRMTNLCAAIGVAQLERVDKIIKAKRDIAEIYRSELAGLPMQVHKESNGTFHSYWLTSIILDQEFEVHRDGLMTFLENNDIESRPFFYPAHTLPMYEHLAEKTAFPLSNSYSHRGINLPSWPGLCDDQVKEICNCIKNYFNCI

| SMILES | K(m) | V(max) |
| --- | --- | --- |
| CC1OC(OP(=O)(O)OP(=O)(O)OCC2OC(n3cnc4c(=O)[nH]c(N)nc43)C(O)C2O)C(O)C(O)C1=O [GDP-4-keto-6-deoxy-D-mannose] | 0.06 mM | 38 nkat/mg protein |
| N[C@@H](CCC(=O)O)C(=O)O [L-glutamate] | 0.1 mM | 42 nkat/mg protein |
